Values after ≈ are worked out from the molar mass of the structure shown.
Experiments:
[1] = tested on: M. catarrhalis ATCC 43627; experiment: Agar Dilution Method MIC, M. catarrhalis ATCC 43627; type: cell-based, Morexella catarrhalis; details: Moraxella catarrhalis, ATCC43627, Mueller Hinton Agar, 35° Celsius, 20 hours, read-out: Minimum Inhibitory Concentration (MIC in μg/ml)
Experimental: (§1) Briefly, the compounds of invention were weighed, dissolved in Dimethyl Sulfoxide, serially diluted in the same solvent and then incorporated into molten Mueller Hinton Agar in a petridish before solidification, with each petridish containing a different concentration of a compound.
(§2) The Bacterial Inoculum was prepared by touching the tops of 3 to 5 well isolated bacterial colonies with the same morphological appearance from an 18 hour old culture with an inoculating loop, transfering the growth to a tube containing 5 ml of normal saline and adjusting the turbidity of the saline suspension to 0.5 Macfarland Turbidity Standard equivalent to a bacterial population of 1.5×10^8 colony forming units (CFU) per millilitre of suspension.
(§3) The bacterial inoculum prepared in the above manner was inoculated onto petri dishes containing Mueller Hinton Agar which had earlier been incorporated with different dilutions of the compounds of invention by a Multipoint Inoculator with each inoculum spot containing approximately 1×10^4 colony forming units (CFU) of bacteria.
(§4) The inoculated petridishes were incubated at 35° Celsius in an ambient atmosphere for 20 hours. Petridishes containing different concentrations of Vancomycin and Oxacillin and inoculated with Staphylococcus aureus, Coagulase Negative Staphylococci and Enterococci were incubated for 24 hours.

S. aureus ATCC 29213 = experiment: Agar Dilution Method MIC, S. aureus ATCC 29213; type: cell-based; details: Staphylococcus aureus, ATCC29213, Mueller Hinton Agar, 35° Celsius, 20 hours, read-out: Minimum Inhibitory Concentration (MIC in μg/ml)
Experimental: as §1, §2, §3, §4

S. aureus MRO 00030 = experiment: Agar Dilution Method MIC, S. aureus MRO 00030; type: cell-based; details: Staphylococcus aureus, MRO00030, Mueller Hinton Agar, 35° Celsius, 20 hours, read-out: Minimum Inhibitory Concentration (MIC in μg/ml)
Experimental: as §1, §2, §3, §4

E. faecalis ATCC 51299 = experiment: Agar Dilution Method MIC, E. faecalis ATCC 51299; type: cell-based; details: Enterococcus faecalis, ATCC51299, Mueller Hinton Agar, 35° Celsius, 20 hours, read-out: Minimum Inhibitory Concentration (MIC in μg/ml)
Experimental: as §1, §2, §3, §4

S. aureus MRO 00003 = experiment: Agar Dilution Method MIC, S. aureus MRO 00003; type: cell-based; details: Staphylococcus aureus, MRO00003, Mueller Hinton Agar, 35° Celsius, 20 hours, read-out: Minimum Inhibitory Concentration (MIC in μg/ml)
Experimental: as §1, §2, §3, §4

S. aureus MRO 00048 = experiment: Agar Dilution Method MIC, S. aureus MRO 00048; type: cell-based; details: Staphylococcus aureus, MRO00048, Mueller Hinton Agar, 35° Celsius, 20 hours, read-out: Minimum Inhibitory Concentration (MIC in μg/ml)
Experimental: as §1, §2, §3, §4

S. aureus MRO 00001 = experiment: Agar Dilution Method MIC, S. aureus MRO 00001; type: cell-based; details: Staphylococcus aureus, MRO00001, Mueller Hinton Agar, 35° Celsius, 20 hours, read-out: Minimum Inhibitory Concentration (MIC in μg/ml)
Experimental: as §1, §2, §3, §4

S. aureus MRO 00013 = experiment: Agar Dilution Method MIC, S. aureus MRO 00013; type: cell-based; details: Staphylococcus aureus, MRO00013, Mueller Hinton Agar, 35° Celsius, 20 hours, read-out: Minimum Inhibitory Concentration (MIC in μg/ml)
Experimental: as §1, §2, §3, §4

[2] = tested on: M. catarrhalis ATCC 43617; experiment: Agar Dilution Method MIC, M. catarrhalis ATCC 43617; type: cell-based, Morexella catarrhalis; details: Moraxella catarrhalis, ATCC43617, Mueller Hinton Agar, 35° Celsius, 20 hours, read-out: Minimum Inhibitory Concentration (MIC in μg/ml)
Experimental: as §1, §2, §3, §4

S. aureus ATCC 43300 = experiment: Agar Dilution Method MIC, S. aureus ATCC 43300; type: cell-based; details: Staphylococcus aureus, ATCC43300, Mueller Hinton Agar, 35° Celsius, 20 hours, read-out: Minimum Inhibitory Concentration (MIC in μg/ml)
Experimental: as §1, §2, §3, §4

S. epidermidis MRO 02046 = experiment: Agar Dilution Method MIC, S. epidermidis MRO 02046; type: cell-based; details: Staphylococcus epidermidis, MRO02046, Mueller Hinton Agar, 35° Celsius, 20 hours, read-out: Minimum Inhibitory Concentration (MIC in μg/ml)
Experimental: as §1, §2, §3, §4

S. aureus MRO 00059 = experiment: Agar Dilution Method MIC, S. aureus MRO 00059; type: cell-based; details: Staphylococcus aureus, MRO00059, Mueller Hinton Agar, 35° Celsius, 20 hours, read-out: Minimum Inhibitory Concentration (MIC in μg/ml)
Experimental: as §1, §2, §3, §4

S. aureus MRO 00055 = experiment: Agar Dilution Method MIC, S. aureus MRO 00055; type: cell-based; details: Staphylococcus aureus, MRO00055, Mueller Hinton Agar, 35° Celsius, 20 hours, read-out: Minimum Inhibitory Concentration (MIC in μg/ml)
Experimental: as §1, §2, §3, §4

E. fecalis MRO 04045 = experiment: Agar Dilution Method MIC, E. fecalis MRO 04045; type: cell-based; details: Enterococcus faecalis, MRO04045, Mueller Hinton Agar, 35° Celsius, 20 hours, read-out: Minimum Inhibitory Concentration (MIC in μg/ml)
Experimental: as §1, §2, §3, §4

E. faecalis ATCC 29212 = experiment: Agar Dilution Method MIC, E. faecalis ATCC 29212; type: cell-based; details: Enterococcus faecalis, ATCC29212, Mueller Hinton Agar, 35° Celsius, 20 hours, read-out: Minimum Inhibitory Concentration (MIC in μg/ml)
Experimental: as §1, §2, §3, §4

[3] = tested on: M. catarrhalis ATCC 43628; experiment: Agar Dilution Method MIC, M. catarrhalis ATCC 43628; type: cell-based, Morexella catarrhalis; details: Moraxella catarrhalis, ATCC43628, Mueller Hinton Agar, 35° Celsius, 20 hours, read-out: Minimum Inhibitory Concentration (MIC in μg/ml)
Experimental: as §1, §2, §3, §4

SMILES	melting point	MIC [1]	MIC (S. aureus ATCC 29213)	MIC (S. aureus MRO 00030)	MIC (E. faecalis ATCC 51299)	MIC (S. aureus MRO 00003)	MIC (S. aureus MRO 00048)	MIC (S. aureus MRO 00001)	MIC (S. aureus MRO 00013)	MIC [2]	MIC (S. aureus ATCC 43300)	MIC (S. epidermidis MRO 02046)	MIC (S. aureus MRO 00059)	MIC (S. aureus MRO 00055)	MIC (E. fecalis MRO 04045)	MIC (E. faecalis ATCC 29212)	MIC [3]
CC(=O)NC[C@H]1CN(c2ccc(N3CCN(C(=S)CN)CC3)c(F)c2)C(=O)O1.Cl	202 to 204 °C																
CC(=S)NC[C@H]1CN(c2ccc(N3CCN(C(=S)c4cnccn4)CC3)c(F)c2)C(=O)O1 [Example 14, (S)-N-[3-[3-Fluoro-4-[4-(pyrazin-2-ylthiocarbonyl)piperazin-1-yl]phenyl]-2-oxooxazolidin-5-ylmethyl]thioacetamide]		2 µg/mL (≈ 4.21 µM)	0.5 µg/mL (≈ 1.05 µM)	0.5 µg/mL (≈ 1.05 µM)	0.25 µg/mL (≈ 0.527 µM)	0.5 µg/mL (≈ 1.05 µM)	0.25 µg/mL (≈ 0.527 µM)	0.25 µg/mL (≈ 0.527 µM)	0.5 µg/mL (≈ 1.05 µM)	2 µg/mL (≈ 4.21 µM)	0.25 µg/mL (≈ 0.527 µM)	0.25 µg/mL (≈ 0.527 µM)	0.25 µg/mL (≈ 0.527 µM)	0.5 µg/mL (≈ 1.05 µM)	0.25 µg/mL (≈ 0.527 µM)	0.25 µg/mL (≈ 0.527 µM)	2 µg/mL (≈ 4.21 µM)
CC(=S)NC[C@H]1CN(c2ccc(N3CCN(C(=O)Nc4ccc([N+](=O)[O-])cc4)CC3)c(F)c2)C(=O)O1 [Example 46]		2 µg/mL (≈ 3.87 µM)	0.5 µg/mL (≈ 0.968 µM)	0.5 µg/mL (≈ 0.968 µM)	0.25 µg/mL (≈ 0.484 µM)	0.5 µg/mL (≈ 0.968 µM)	0.25 µg/mL (≈ 0.484 µM)	0.25 µg/mL (≈ 0.484 µM)	0.5 µg/mL (≈ 0.968 µM)	2 µg/mL (≈ 3.87 µM)	0.25 µg/mL (≈ 0.484 µM)	0.25 µg/mL (≈ 0.484 µM)	0.5 µg/mL (≈ 0.968 µM)	0.5 µg/mL (≈ 0.968 µM)	0.25 µg/mL (≈ 0.484 µM)	0.25 µg/mL (≈ 0.484 µM)	2 µg/mL (≈ 3.87 µM)

Further lines, results first:

melting point	MIC [1]	MIC (S. aureus ATCC 29213)	MIC (S. aureus MRO 00030)	MIC (E. faecalis ATCC 51299)	MIC (S. aureus MRO 00003)	MIC (S. aureus MRO 00048)	MIC (S. aureus MRO 00001)	MIC (S. aureus MRO 00013)	MIC [2]	MIC (S. aureus ATCC 43300)	MIC (S. epidermidis MRO 02046)	MIC (S. aureus MRO 00059)	MIC (S. aureus MRO 00055)	MIC (E. fecalis MRO 04045)	MIC (E. faecalis ATCC 29212)	MIC [3]	SMILES
	2 µg/mL (≈ 4.06 µM)	0.5 µg/mL (≈ 1.01 µM)	0.5 µg/mL (≈ 1.01 µM)	0.5 µg/mL (≈ 1.01 µM)	0.5 µg/mL (≈ 1.01 µM)	0.5 µg/mL (≈ 1.01 µM)	0.25 µg/mL (≈ 0.507 µM)	1 µg/mL (≈ 2.03 µM)	2 µg/mL (≈ 4.06 µM)	0.5 µg/mL (≈ 1.01 µM)	0.25 µg/mL (≈ 0.507 µM)	0.5 µg/mL (≈ 1.01 µM)	0.5 µg/mL (≈ 1.01 µM)	0.5 µg/mL (≈ 1.01 µM)	0.5 µg/mL (≈ 1.01 µM)	2 µg/mL (≈ 4.06 µM)	CC(=S)NC[C@H]1CN(c2ccc(N3CCN(C(=S)c4ccc(C)s4)CC3)c(F)c2)C(=O)O1 [Example 7, (S)-N-[3-[3-Fluoro-4-[4-(5-methylthiophen-2-ylthiocarbonyl)piperazin-1-yl]phenyl]-2-oxooxazolidin-5-ylmethyl]thioacetamide]
	2 µg/mL (≈ 3.9 µM)	0.5 µg/mL (≈ 0.974 µM)	0.5 µg/mL (≈ 0.974 µM)	0.25 µg/mL (≈ 0.487 µM)	0.5 µg/mL (≈ 0.974 µM)	0.25 µg/mL (≈ 0.487 µM)	0.25 µg/mL (≈ 0.487 µM)	0.5 µg/mL (≈ 0.974 µM)	2 µg/mL (≈ 3.9 µM)	0.25 µg/mL (≈ 0.487 µM)	0.25 µg/mL (≈ 0.487 µM)	0.25 µg/mL (≈ 0.487 µM)	0.5 µg/mL (≈ 0.974 µM)	0.25 µg/mL (≈ 0.487 µM)	0.25 µg/mL (≈ 0.487 µM)	2 µg/mL (≈ 3.9 µM)	CC(=S)NC[C@H]1CN(c2ccc(N3CCN(C(=S)c4ccc(Cl)s4)CC3)c(F)c2)C(=O)O1 [Example 8, (S)-N-[3-[3-Fluoro-4-[4-(5-chlorothiophen-2-ylthiocarbonyl)piperazin-1-yl]phenyl]-2-oxooxazolidin-5-ylmethyl]thioacetamide]
	2 µg/mL (≈ 4.06 µM)	0.25 µg/mL (≈ 0.507 µM)	0.5 µg/mL (≈ 1.01 µM)	0.5 µg/mL (≈ 1.01 µM)	1 µg/mL (≈ 2.03 µM)	0.25 µg/mL (≈ 0.507 µM)	0.25 µg/mL (≈ 0.507 µM)	1 µg/mL (≈ 2.03 µM)	2 µg/mL (≈ 4.06 µM)	0.5 µg/mL (≈ 1.01 µM)	0.25 µg/mL (≈ 0.507 µM)	0.5 µg/mL (≈ 1.01 µM)	1 µg/mL (≈ 2.03 µM)	1 µg/mL (≈ 2.03 µM)	0.5 µg/mL (≈ 1.01 µM)	2 µg/mL (≈ 4.06 µM)	CC(=S)NC[C@H]1CN(c2ccc(N3CCN(C(=S)Cc4cccs4)CC3)c(F)c2)C(=O)O1 [Example 13, (S)-N-[3-[3-Fluoro-4-[4-(thiophen-2-ylthioacetyl)piperazin-1-yl]phenyl]-2-oxooxazolidin-5-ylmethyl]thioacetamide]
	1 µg/mL (≈ 2.16 µM)	0.5 µg/mL (≈ 1.08 µM)	0.5 µg/mL (≈ 1.08 µM)	< 0.25 µg/mL	0.5 µg/mL (≈ 1.08 µM)	< 0.25 µg/mL	0.5 µg/mL (≈ 1.08 µM)	1 µg/mL (≈ 2.16 µM)	1 µg/mL (≈ 2.16 µM)	0.5 µg/mL (≈ 1.08 µM)	< 0.25 µg/mL	0.5 µg/mL (≈ 1.08 µM)	1 µg/mL (≈ 2.16 µM)	1 µg/mL (≈ 2.16 µM)	0.5 µg/mL (≈ 1.08 µM)	1 µg/mL (≈ 2.16 µM)	CC(=S)NC[C@H]1CN(c2ccc(N3CCN(C(=S)c4ncc[nH]4)CC3)c(F)c2)C(=O)O1 [Example 22, (S)-N-[3-[3-Fluoro-4-[4-(imidazol-2-ylthiocarbonyl)piperazin-1-yl]phenyl]-2-oxooxazolidin-5-ylmethyl]thioacetamide]

— patent US7217726B2, “Antibacterial agents” (Orchid Chemicals & Pharmaceuticals Limited, priority 2002, dated 2007)
